In PMC3901259, “Characterisation of the Metabolites of 1,8-Cineole Transferred into Human Milk: Concentrations and Ratio of Enantiomers” (Metabolites, 2013):
Like-named read-outs stand apart in the source and are kept apart here.

Assays:
[1] = Quantification of 1,8-cineole metabolites in human milk (SAFE, GC-MS, internal standard and matrix calibration) after oral intake of 100 mg 1,8-cineole; type: in vivo; conditions: for Absolute concentration in human milk: single determination
Text: Human milk samples were provided voluntarily by breastfeeding mothers after intake of the non-prescription pharmaceutical Soledum® (Klosterfrau Healthcare Group, Cologne, Germany). Before the beginning of the study, the participants were informed verbally, as well as in written form, about the study procedure and purpose and they were told that withdrawing from the study was possible at any time without giving any reason. All volunteers gave written consent to the analysis of their milk samples and anonymous publication of the resulting data. The Ethical Committee of the Medical Faculty, University Erlangen-Nuremberg, approved the experimental procedures. Each participant was handed a copy of the Soldeum® package instructions and was advised to read it before capsule intake. They were also advised to withdraw from the study if any negative reactions such as medication allergies or interactions with other drugs they were taking were to be expected. Additionally, the volunteers were informed verbally about potential effects of the pharmaceutical preparation on breastfeeding, i.e. the risk of an altered milk flavour and rejection of the milk by the nursling. Accordingly, if this would happen, the mothers were recommended to feed their babies with stored human milk or formula milk products.
The milk donors were between the ages of 29 and 40 years (mean 34 years). During their participation in the study, their breast milk production had to be normal and in excess of their infants' needs, with no breast infections and no overall medical complaints present. Five participants were primiparous, three were multiparous and the breast milk samples were from 19 weeks to 19 months postpartum. For sampling, either electrical or mechanical breast pumps or manual expression techniques were applied, resulting in sample volumes between 10 and 100 mL. The samples were immediately subjected to sample preparation after a maximum storage time of five hours at 7 °C or were stored in a freezer at −20 °C for up to five days.
The participating volunteers were asked to ingest one Soledum® capsule, containing 100 mg 1,8-cineole, and to wait until they themselves or another person began to notice the eucalyptus-like odour on their breath. […] The donors were instructed to keep notes on the dates of capsule intake, first eucalyptus-like odour on their breath and exact sampling time. Unfortunately it was difficult for some mothers to detect the smell on their breath so they expressed the samples after some time without having noticed the smell, or reported having been unsure about the smell. […] Some of the donors repeated the whole experiment and some expressed more than one sample after the capsule intake, resulting in 14 samples in total, from 8 different mothers.
Extracts containing the volatile fraction of the human milk samples were prepared by Solvent Assisted Flavour Evaporation (SAFE) after addition of deuterated 1,8-cineole as internal standard (solution in dichloromethane), followed by 10 min of stirring, then another addition of dichloromethane (50% v/v), and 30 min of stirring. The resulting stable phase was distilled in the SAFE-apparatus at 50 °C and approximately 1x10^−4 mbar. The volatile fraction of the samples was frozen with liquid nitrogen. After thawing, it consisted of two phases, formed by the dichloromethane and by the water out of the milk. The water phase was extracted three times with dichloromethane, and the solvent phases were combined and dried over anhydrous Na2SO4. Finally the sample extracts were concentrated by microdistillation according to Bemelmans at 50 °C to a total volume of 50 to 200 μL.
For GC-MS analyses, an Agilent MSD quadrupole system (GC 7890A with MSD 5975C, Agilent Technologies, Waldbronn, Germany) coupled with a CIS 4C (cooled injection system) and an MPS 2 auto-sampler (Gerstel GmbH & Co. KG, Duisburg, Germany) were used. […]

[2] = Determination of the ratios of enantiomers of chiral metabolites in human milk on chiral GC capillaries; type: in vivo; conditions: human milk samples B-1, B-2b and B-2c; excluded from Table 3
Text: The separation of the chiral metabolites of 1,8-cineole was successfully achieved using different β- or γ-cyclodextrin-based stationary phases (Rt-bDEXsa, Rt-bDEXse, Rt-bDEXsm and Rt-yDEXsa) for gas chromatographic analysis. Table S1, in the supplementary material, lists the usable separation phases and the respective retention indices (determined according to van den Dool and Kratz) for each pair of enantiomers. It was therefore decided to use the following capillaries for the analysis of the human milk samples: Rt-bDEXsm for separation of 2,3-dehydro-, α2,3-epoxy-, 2-oxo-, 3-oxo- and 9-hydroxy-1,8-cineole, and Rt-yDEXsa for separation of α2-hydroxy-, α3-hydroxy- and β2-hydroxy-1,8-cineole, under the GC conditions described in the experimental section.
For GC-MS analyses, an Agilent MSD quadrupole system (GC 7890A with MSD 5975C, Agilent Technologies, Waldbronn, Germany) coupled with a CIS 4C (cooled injection system) and an MPS 2 auto-sampler (Gerstel GmbH & Co. KG, Duisburg, Germany) were used. Data collection and analysis were performed with the MSD ChemStation E.02.00.493 (Agilent Technologies, Inc.) software. Quantification experiments were carried out on DB-FFAP and DB-5 capillaries (30 m length, 0.25 mm inner diameter, 0.25 µm film thickness, Agilent J&W GC Columns, USA), and for monitoring of the ratio of enantiomers the chiral capillaries Rt-bDEXsa, Rt-bDEXse, Rt-bDEXsm and Rt-yDEXsa (30 m length, 0.32 mm inner diameter, 0.25 µm film thickness, Restek GmbH, Bad Homburg, Germany) were utilised. Pre-columns of uncoated, deactivated fused silica (0.53 mm inner diameter, 0.5 to 3.5 m length) were used to ensure that no potentially present low-volatile residues could contaminate the analytical capillaries. The temperature programme of the column oven was as follows: 40 °C for 2 min, 4 °C/min up to 170 °C, 40 °C/min up to 230 °C (Rt-DEX capillaries), 240 °C (DB-FFAP) and 250 °C (DB-5), respectively, and hold time at end temperature of 5 to 10 min. As carrier gas, helium was used at a flow rate of 1.3 mL/min (velocity 41.1 cm/s). Injection of 1 or 2 µL was performed by the auto-sampler.
For the separation of the pairs of enantiomers of the chiral metabolites of 1,8-cineole, four different capillaries (Rt-bDEXsa, Rt-bDEXse, Rt-bDEXsm, and Rt-yDEXsa) were evaluated for optimisation of the peak-to-peak resolution of the enantiomers by injecting a mixture of all the metabolites in a dichloromethane solution and by varying the heating rate. Besides the separation of each pair of enantiomers from each other, it was also important to confirm that no other metabolite coeluted with any one of the enantiomers, because the milk samples would most probably contain all metabolites. Moreover, the separation conditions for the mixture of reference substances were also tested on some human milk sample extracts and modified accordingly, where necessary, to avoid coelution with interfering matrix compounds.
For calculation of the ratio of enantiomers (that is, the relative abundance of each enantiomer to the not separated mixture of enantiomers), the peak area of each enantiomer was divided by the sum of the peak areas of both enantiomers and multiplied by 100. With the known concentrations of the chiral metabolites in each milk sample, the absolute concentration of each single enantiomer was also calculated by multiplying the concentration with the respective percentage.

[3] = parameters: method as in doi:10.1002/cplu.201200253; conditions: urine after 100 mg 1,8-cineole; cited from earlier work
[4] = parameters: method as in PMID 22405404; conditions: cited from earlier work
rats = test system: rats; parameters: method as in PMID 6068552; conditions: cited from earlier work
[5] = sample F (no odour), two capsules

Structure (SMILES): CC12CCC(CC1=O)C(C)(C)O2 (stereo not shown) [2-oxo-1,8-cineole]
- Estimated maximum level in human milk (concentration calculated with the last calibration point, in parentheses) ([1]; sample A-1a (no odour)): < 1.57 µg/kg
- Absolute concentration in human milk ([1]; sample A-1a (no odour), oral 100 mg 1,8-cineole, values given with (<x) lie beyond calibration range, approximation): 0.13 µg/kg
- Estimated maximum level in human milk (concentration calculated with the last calibration point, in parentheses) ([1]; sample A-1b (odour yes)): < 1.31 µg/kg
- Absolute concentration in human milk ([1]; sample A-1b (odour yes), oral 100 mg 1,8-cineole, values given with (<x) are approximations): 0.53 µg/kg
- Estimated maximum level in human milk (concentration calculated with the last calibration point, in parentheses) ([1]; sample B-1 (odour yes)): < 1.89 µg/kg
- Absolute concentration in human milk ([1]; sample B-1 (odour yes), oral 100 mg 1,8-cineole, values given with (<x) are approximations): 0.91 µg/kg
- Estimated maximum level in human milk (concentration calculated with the last calibration point, in parentheses) ([1]; sample B-2b (odour yes)): < 2.37 µg/kg
- Absolute concentration in human milk ([1]; sample B-2b (odour yes), oral 100 mg 1,8-cineole, values given with (<x) are approximations): 0.34 µg/kg
- Absolute concentration in human milk ([1]; sample B-2c (no odour), oral 100 mg 1,8-cineole): 0.07 µg/kg
- Estimated maximum level in human milk (concentration calculated with the last calibration point, in parentheses) ([1]; sample D-2 (odour yes)): < 2.20 µg/kg
- Absolute concentration in human milk ([1]; sample D-2 (odour yes), oral 100 mg 1,8-cineole, values given with (<x) are approximations): 0.85 µg/kg
- Estimated maximum level in human milk (concentration calculated with the last calibration point, in parentheses) ([1]; sample E-2 (odour yes)): < 2.03 µg/kg
- Absolute concentration in human milk ([1]; sample E-2 (odour yes), oral 100 mg 1,8-cineole, values given with (<x) are approximations): 1.71 µg/kg
- Absolute concentration in human milk ([1]; sample F (no odour), parent ingested two capsules, values given with (<x) are approximations): 2.71 µg/kg
- Estimated maximum level in human milk (concentration calculated with the last calibration point, in parentheses) [1, 5]: < 3.00 µg/kg
- Estimated maximum level in human milk (concentration calculated with the last calibration point, in parentheses) ([1]; sample H (odour yes)): < 2.24 µg/kg
- Absolute concentration in human milk ([1]; sample H (odour yes), oral 100 mg 1,8-cineole, values given with (<x) are approximations): 0.86 µg/kg
- Percentage E2 in single samples (outliers) [2]: 100%
- Presence in human urine [3]: could not be found

Structure (SMILES): CC12CCC(CC1)C(C)(C)O2 [1,8-cineole, 1,8-Cineole]
- Concentration of 1,8-cineole in human milk ([4]; sample A-1a (no odour), beyond calibration range, approximation): 2.43 µg/kg
- 1,8-cineole: concentration calculated with the last calibration point (limit in parentheses) ([4]; sample A-1a (no odour)): < 13.65 µg/kg
- Concentration of 1,8-cineole in human milk ([4]; sample A-1b (odour yes)): 134.72 µg/kg
- Concentration of 1,8-cineole in human milk ([4]; sample B-1 (odour yes)): 399.39 µg/kg
- Concentration of 1,8-cineole in human milk ([4]; sample B-2a (no odour)): 0.98 µg/kg
- Concentration of 1,8-cineole in human milk ([4]; sample B-2b (odour yes)): 70.97 µg/kg
- Concentration of 1,8-cineole in human milk ([4]; sample B-2c (no odour)): 14.82 µg/kg
- Concentration of 1,8-cineole in human milk ([4]; sample C (no odour)): 13.56 µg/kg
- Concentration of 1,8-cineole in human milk ([4]; sample D-1 (no odour), beyond calibration range, approximation): 5.75 µg/kg
- 1,8-cineole: concentration calculated with the last calibration point (limit in parentheses) ([4]; sample D-1 (no odour)): < 10.59 µg/kg
- Concentration of 1,8-cineole in human milk ([4]; sample D-2 (odour yes)): 226.09 µg/kg
- Concentration of 1,8-cineole in human milk ([4]; sample E-1 (no odour), beyond calibration range, approximation): 3.19 µg/kg
- 1,8-cineole: concentration calculated with the last calibration point (limit in parentheses) ([4]; sample E-1 (no odour)): < 13.18 µg/kg
- Concentration of 1,8-cineole in human milk ([4]; sample E-2 (odour yes)): 504.93 µg/kg
- Concentration of 1,8-cineole in human milk ([4]; sample F (no odour), two capsules, beyond calibration range, approximation): 20.23 µg/kg
- 1,8-cineole: concentration calculated with the last calibration point (limit in parentheses) [4, 5]: < 26.14 µg/kg
- Concentration of 1,8-cineole in human milk ([4]; sample G (odour yes)): 194.46 µg/kg
- acute oral LD50 (rats): 2.5 g/kg bodyweight
